Assay results from ChEMBL document CHEMBL3046025, “Fungitoxic Properties of N-Phenylformamidoximes in Control of Benzimidazole-Resistant Isolates of Fungi” (1992).

How the values were obtained:
Type in all cases: functional
Botrytis cinerea [1] = assay: Antifungal activity against Benzimidalzole-resistant Botryotinia fuckeliana isolate Bc-20 infected compound-treated kidney bean leaves at 50 ppm after 4 days
Botrytis cinerea [2] = assay: Antifungal activity against Benzimidalzole-resistant Botryotinia fuckeliana isolate Bc-44 infected compound-treated kidney bean leaves at 200 ppm after 4 days
Botrytis cinerea [3] = assay: Antifungal activity against Benzimidalzole-resistant Botryotinia fuckeliana isolate Bc-20 infected compound-treated kidney bean leaves at 200 ppm after 4 days
Cercospora beticola = assay: Antifungal activity against Benzimidalzole-resistant Cercospora beticola isolate Cb-19 infected in sugar beet seedlings at 50 ppm applied as soil drench 3 days prior to inoculation
Botrytis cinerea [4] = assay: Antifungal activity against Benzimidalzole-resistant Botryotinia fuckeliana isolate Bc-44 infected compound-treated kidney bean leaves at 0.8 ppm after 4 days

C#CCOc1c(Cl)cc(N/C=N/OC)cc1Cl
Activity (Botrytis cinerea [1]): 6%
Activity (Botrytis cinerea [2]): 100%
Activity (Botrytis cinerea [3]): 11%

C#CCOc1cc(N/C=N/OC)cc(Cl)c1OCC#C
Activity (Cercospora beticola): 68%
Activity (Botrytis cinerea [4]): 75%
Activity (Botrytis cinerea [2]): 100%
